Measured values taken from patent US5886165A, “Mixed backbone antisense oligonucleotides containing 2'-5'-ribonucleotide- and 3'-5'-deoxyribonucleotides segments” (Hybridon, Inc., priority 1996, dated 1999).
[25] = 2'-5' internucleotide linkage (phosphodiester)

Columns and labels:
[1] = test system: DNA target strand SEQ ID NO 10 (25 base sequence from the initiation codon region of the HIV-1 gag mRNA); assay: Thermal melting study, duplex with DNA target strand; format: binding; details: for Tm DNA: duplex with DNA SEQ ID NO 10, 10 mM disodium hydrogen phosphate pH 7.5, 100 mM NaCl, 2.0 μM total strands; for Tm lower than duplex of control phosphorothioate oligonucleotide SEQ ID NO 8, DNA target: vs SEQ ID NO 8, DNA SEQ ID NO 10
Experimental: (§1) Thermal denaturation studies were carried out by mixing MBOs with the DNA or RNA target strands in equimolar ratios in 10 mM disodium hydrogen phosphate, pH 7.5±0.1, 100 mM sodium chloride buffer, heated to 95° C. for 10 min, and allowed to come to room temperature slowly before being stored at 4° C. overnight. The final total concentration of the oligonucleotide strands was 2.0 μM. Spectrophotometric measurements were performed at 260 nm using 1 cm path length quartz cuvettes at a heating rate of 0.5° C./min on a Perkin-Elmer (Norwalk, Conn.) Lambda 2 Specotrometer attached to a thermal controller and a personal computer. Melting temperatures (Tm) taken as the temperature of half-dissociation and were obtained from first derivative plots. Precision in Tm values estimated from variance in two or three repeated experiments was ±0.5° C.

[2] = test system: RNA target strand SEQ ID NO 9 (25 base sequence from the initiation codon region of the HIV-1 gag mRNA); assay: Thermal melting study, duplex with RNA target strand; format: binding; details: for Tm RNA: duplex with RNA SEQ ID NO 9, 10 mM disodium hydrogen phosphate pH 7.5, 100 mM NaCl, 2.0 μM total strands; for Tm lower than duplex of control phosphorothioate oligonucleotide SEQ ID NO 8, RNA target: vs SEQ ID NO 8, RNA SEQ ID NO 9
Experimental: as §1

Spleen cells (CD1 mouse) = assay: In vitro cell proliferation assay ([3H]thymidine); format: cell-based; details: at 10 μg/ml, 48 hrs
Experimental: Cell proliferation assays were carried out as described earlier (Zhao et al., Biochem. Pharmacol 51, 173-182 (1996)). Spleen cells (4-5 week old male CD1 mouse, 20-22 gm, Charles River, Wilmington, Mass.) suspensions were prepared and plated in 96-well dishes at a density of 10^6 cells/ml in a final volume of 100 μl. The cells were incubated at 37° C. after adding 10 μl of oligonucleotides. After 44 hrs incubation, 1 μCi [3H]thymidine (Amersham, Arlington Heights, Ill.) was added and the cells were pulse-labeled for another 4 hrs. The cells were harvested by an automatic cell harvester and the filters were counted by a scintillation counter. All experiments were carried out in triplicate.

[3] = test system: citrated normal human donor plasma; assay: Clotting assay, activated partial thromboplastin time (aPTT); details: compared to saline control; for 50% Prolongation of Clotting (aPTT): human plasma; for effect in coagulation assay (in words): up to 100 μg/ml dose
Experimental: The activated partial thromboplastin time (aPTT) was performed with citrated normal human donor plasma in duplicate on an Electra 1000C (Medical Laboratory Automation, Mount Vernon, N.Y.) according to recommended procedures using Actin FSL (Baxter Dade, Miami, Fla.) and 2.5 mM calcium to initiate clot formation, which was measured photometrically. Normal plasma aPTT values ranged from 27 to 39 sec. Data were calculated as 50% of prolongation as compared to the saline control.

[4] = test system: normal human serum complement lysis of sheep red blood cells; assay: CH50 hemolytic complement assay; details: for 50% Inhibition of Complement Lysis: compared to saline control
Experimental: A CH50 assay for complement lysis of sheep red blood cells (Colorado Serum Co., Denver, Col.) sensitized with anti-sheep red cell antibody (hemolysin; Diamedix, Miami, Fla.) as previously described (Mayer, In Experimental Immunochemistry, Kabat and Mayer eds., C. C. Thomas, Springfield, pp. 125-131 (1961)), was modified to test 1-200 dilutions of normal human serum interpreted. Hemoglobin release into cell-free supernates was measured spectrophotometrically at 541 nm. Data were calculated as 50% inhibition of lysis compared to saline control.

[5] = Stability in DMEM cell culture medium containing 10% fetal calf serum; format: in vitro ADME; details: DMEM with 10% non-heat-inactivated fetal calf serum, 37° C.
Experimental: Oligonucleotides were labeled at the 5'-end with ^32 P using γ-^32 P-ATP (Amersham) and T4 polynucleotide kinase (Promega). Sambrook et al, Molecular Cloning, supra. Stability of the oligonucleotides in cell culture medium containing 10% fetal calf serum was tested by incubating a small amount of labeled oligonucleotide together with 100 ng of cold oligonucleotide in DMEM cell culture medium (Gibco/BRL, Grand Island, N.Y.) containing 10% non-heat-inactivated fetal calf serum (Gibco/BRL) at 37° C. in a final volume of 40 μl, and aliquots were removed at different times.

[6] = test system: snake venom phosphodiesterase; assay: Snake venom phosphodiesterase assay; format: in vitro ADME; details: 0.01 U, 21° C.; compared with SEQ ID NO 7
Experimental: (§2) For snake venom phosphodiesterase assay, labeled oligonucleotide with cold oligonucleotide in a buffer (10 mM Tris, pH 8.0, 100 mM sodium chloride, and 10 mM magnesium chloride) was incubated with 0.01 U of snake venom phosphodiesterase (Boehringer-Mannheim, Indianapolis, Ind.) at 21° C. (final volume 40 μl). Aliquots were removed at different time intervals for electrophoretic gel analysis. For S1 nuclease assay, reactions were carried out as above but in […] sodium acetate, pH 5.0, 10 mM zinc acetate buffer and with 1.4 U of S1 nuclease (Gibco/BRL) incubated at 37° C. in a final volume of 50 μl. Aliquots were removed at different time intervals for electrophoretic gel analysis. Nuclease reactions were stopped by adding 5 μl of formamide gel loading buffer to each sample and heating at 90° C. for 5 min. All the samples were then run by 20% PAGE (7M urea) and visualized by autoradiography.

S1 nuclease = target: T1, S1 nuclease (Aspergillus oryzae, UniProt P24021); assay: S1 nuclease assay; format: in vitro ADME; details: 1.4 U, 37° C., pH 5.0
T1 construct: purchased Gibco/BRL
T1 sequence (P24021 21-287): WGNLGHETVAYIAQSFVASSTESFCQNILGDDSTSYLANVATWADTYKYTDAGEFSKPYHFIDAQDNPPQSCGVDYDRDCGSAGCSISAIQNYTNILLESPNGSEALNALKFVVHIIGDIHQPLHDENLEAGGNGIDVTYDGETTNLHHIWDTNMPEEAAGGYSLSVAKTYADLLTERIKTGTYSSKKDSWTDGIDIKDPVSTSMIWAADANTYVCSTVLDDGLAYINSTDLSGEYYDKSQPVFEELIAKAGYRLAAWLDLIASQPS
Experimental: as §2

HIV-1 = assay: Inhibition of HIV-1 replication in cell culture (MT-4 cells, MTT); format: cell-based; details: for IC50: 6 days
Experimental: Oligonucleotides according to the invention were studied for their ability to inhibit HIV-1. HIV-1 inhibition assay was carried out as described previously. Kandimalla et al., Nucleic Acids Res., supra). Briefly, serial dilutions of antisense oligonucleotides were prepared in 50 μl volumes of complete medium (RAMI-1640, 10% fetal bovine serum, 2 mM L-glutamine, 100 U/ml penicillin, […] streptomycin) in triplicate in 96-well plates. Virus diluted to contain a 90% CP dose of virus in 50 μl was added, followed by 100 μl 4×10^5 /ml MT-4 cells in complete medium. The plates were incubated at 37° C. in 5% CO2 for 6 days. MTT dye was added and quantified at A540 and A690 as described. The percent inhibition was calculated by the formula (experimental--virus control)/(medium control--virus control)×100.

| Substance | Tm DNA [1] [°C] | Tm RNA [2] [°C] | Stimulation Index (Lymphocyte Proliferation) (Spleen cells (CD1 mouse)) | 50% Prolongation of Clotting (aPTT) [3] | 50% Inhibition of Complement Lysis [4] [µg/mL] | IC50 (HIV-1) [nM] | further results |
| --- | --- | --- | --- | --- | --- | --- | --- |
| SEQ ID NO 6: Phosphorothioate analog of SEQ ID NO 4, with nine 2'-5' linkages (antisense CUCTCGCACCCAUCTCTCTCCUUCT; all linkages phosphorothioate, nine 2'-5' linkages, further chemistry not given here) | 39.4 | 56.4 | 0.23 | 98.3 µg/mL | > 500.0 |  | Tm lower than duplex of control phosphorothioate oligonucleotide SEQ ID NO 8, DNA target [1]: 17.2 °C; Tm lower than duplex of control phosphorothioate oligonucleotide SEQ ID NO 8, RNA target [2]: 7.1 °C; Stimulation Index (Lymphocyte Proliferation) (Spleen cells (CD1 mouse); listed as 6): 0.23 ± 0.04 |
| SEQ ID NO 4: Phosphodiester MBO with three 2'-5' linkages at each end and an additional three in the middle (antisense CUCTCGCACCCAUCTCTCTCCUUCT; phosphodiester, three 2'-5' linkages at each end and three in middle, further chemistry not given here) | 52.8 | 64.5 |  | > 100.0 µg/mL |  |  | ΔTm with the DNA strand ([1]; destabilizing effect, DNA strand): -10.7 °C; ΔTm with the RNA strand ([2]; destabilizing effect, RNA strand): -6.0 °C; effect in coagulation assay (in words) [3]: negligible effect; stability in serum (in words) [5]: intact up to four hours; stability against snake venom phosphodiesterase (in words) [6]: slightly higher stability; digestion by S1 nuclease (in words) (S1 nuclease): quickly digested |
| SEQ ID NO 2: MBO with three 2'-5'-linkages at each end; 2'-5'-phosphodiester and 3'-5'-phosphorothioate linkages (antisense CUCTCGCACCCATCTCTCTCCUUCT; linkages [25]3 s18 [25]3 (s phosphorothioate, o phosphodiester), sugars by position and methylation of C not given here) | 52.5 | 63.3 | 2.82 ± 0.37 | 51.1 µg/mL | 59.1 | 99.9 | concentration required to achieve IC50 relative to control SEQ ID NO 8 (HIV-1; HIV-1 replication): four fold higher concentration |
| SEQ ID NO 3: Phosphorothioate analog of SEQ ID NO 1 (antisense CUCTCGCACCCATCTCTCTCCUUCT; phosphorothioate, chemistry not fully specified) | 51.9 | 61.1 | 4.9 | 58.0 µg/mL | 95.2 | 29.8 | Tm lower than duplex of control phosphorothioate oligonucleotide SEQ ID NO 8, DNA target [1]: about 4.70 °C; Tm lower than duplex of control phosphorothioate oligonucleotide SEQ ID NO 8, RNA target [2]: ~2.4 °C; Stimulation Index (Lymphocyte Proliferation) (Spleen cells (CD1 mouse); listed as 3): 4.93 ± 0.15 |
| SEQ ID NO 8: Control phosphorothioate oligonucleotide containing all 3'-5' linkages (CTCTCGCACCCATCTCTCTCCTTCT; all phosphorothioate, sugars by position and methylation of C not given here) [reference compound] | 56.6 | 63.5 | 6.16 | about 23 μg/ml | 34.2 | 24.9 | Stimulation Index (Lymphocyte Proliferation) (Spleen cells (CD1 mouse); listed as 8): 6.16 ± 0.12; 50% Prolongation of Clotting (aPTT) ([3]; listed as 8): 23.2 µg/mL; effect on complement hemolytic activity (in words) [4]: inhibited serum complement hemolytic activity |
| SEQ ID NO 7: Control phosphodiester oligonucleotide containing all 3'-5' linkages (CTCTCGCACCCATCTCTCTCCTTCT; all phosphodiester, sugars by position and methylation of C not given here) [reference compound] | 63.5 | 70.5 | 1.10 ± 0.13 | > 100.0 µg/mL | > 500.0 |  | effect in coagulation assay (in words) [3]: negligible effect; half-life in serum [5]: < 30 min; digestion by S1 nuclease (in words) (S1 nuclease): quickly digested |
| SEQ ID NO 5: MBO with nine 2'-5'-linkages; 2'-5'-phosphodiester and 3'-5'-phosphorothioate linkages (antisense CUCTCGCACCCAUCTCTCTCCUUCT; nine 2'-5' phosphodiester linkages, other linkages 3'-5' phosphorothioate, further chemistry not given here) | 43.2 | 61.2 | 1.09 ± 0.05 | 115.0 µg/mL |  | > 800 | IC50 (HIV-1; listed as 5): 812 nM |
